The record followed here is patent US7524849B2, “5-arylpyrimidines as anticancer agents” (Wyeth Holdings Corporation, priority 2003, dated 2009).

One series relates to S1 cells. The series is described as follows: MTS cytotoxicity test with S1 cells. The format is cell-based, human. As to conditions: mean of 2 experiments. From the text:
(§1) Human cancer cell lines, unless otherwise noted, are obtained from the American Type Culture Collection (Rockville, Md.). The following drug-sensitive parental cell lines, and their derived drug-resistant counterparts, are obtained from the originators as listed: (a) S1 (parental line from a subclone of human colon carcinoma line LS174T) and derived S1-M1-3.2 (herein called S1-M1) which expresses the MXR drug transporter protein, are provided by Dr. L. Greenberger, Wyeth Research (Rabindran, S. K., He, H., Singh, M., Brown, E., Collins, K. I., Annable, T., and Greenberger, L. M. Reversal of a novel multidrug resistance mechanism in human colon carcinoma cells by fumitremorgin C. Cancer Res., 58: 5850-5858, 1998); (b) parental HL-60 human promyelocytic leukemia line and derived HL-60/ADR, which expresses the MRP1 drug transporter protein, are provided by Dr. M. Center, University of Kansas (McGrath, T., and Center, M. S. Adriamycin resistance in HL60 cells in the absence of detectable P-glycoprotein. Biochem. Biophys. […] J. Biol. Chem., 261: 7762-7770, 1986) via Dr. L. Greenberger, Wyeth Research.
(§2) The assay, which is sold in kit form by Promega (Madison, Wis.; CellTiter 96 AQueous Non-Radioactive Cell Proliferation Assay), is based on the conversion by viable cells, but not by dead cells, of the tetrazolium salt, MTS (3-(4,5-dimethylthiazol-2-yl)-5-(3-carboxymethoxyphenyl)-2-(4-sulphophenyl)-2H-tetrazolium, inner salt), into a water-soluble colored formazan which is detected by spectrophotometry. Compounds are tested at nine concentrations, in order to determine IC50 values. For the test procedure, cells are harvested by trypsinization, washed, counted and distributed to wells of 96-well flat-bottom microtiter plates at 1000 cells per well in 200 μL of medium. In addition, one row of wells on a separate plate receives cells as above (“time 0” plate). All plates are incubated at 37° in humidified 5% CO2 in air for about 24 hr.
(§3) On day 2, compounds for test are diluted and added to wells. Compounds are dissolved in DMSO at 10 mg/mL. For each compound, nine serial 2-fold dilutions are prepared in DMSO. Ten μL of each dilution in DMSO are transferred to 100 μL of medium, mixed well, and then 5 μL of this dilution are transferred in quadruplicate to wells containing cells. […] Plates are returned to the incubator for three days. At the time of drug addition to the experimental plates, the MTS assay is run on the “time 0” plate. This produces the “time 0 MTS value” which is related to the number of viable cells per well at the time of drug addition.
(§4) After three days of culture with test compounds (day 5 overall), the MTS assay is done on all wells of the experimental plates. The absorbance values of the quadruplicate sample wells are averaged and divided by the average of the “time 0” values. […] The nine values for each compound are plotted against concentration, and the concentration that produces a relative color yield half way between the maximum and minimum is taken as the IC50 value.
(§5) S1-M1 cells overexpress the MXR transporter which mediates resistance to some chemotherapeutics (Gottesman, M. M., Fojo, T., and Bates, S. E. Miltidrug resistance in cancer: role of ATP-dependent transporters. Nature Rev. Cancer, 2: 48-58, 2002). The IC50 values of representative examples of this invention, as well as reference compounds, on S1-M1 are compared to values on the sensitive parental S1 line.
(In general: Tetrazolium dyes change colour on reduction, which living cells bring about.)

The next series relates to KB-V1 cells. The series is described as follows: MTS cytotoxicity test with KB-V1 cells (very high P-glycoprotein). Particulars: for IC50: KB VI cells, mean of 2 experiments; for Ratio VI/KB: IC50 on KB VI cells/IC50 on KB cells; for recognition by P-glycoprotein: inferred from change in IC50 KB-V1 vs KB. Format: cell-based, human.
Source text: as §1, §2, §3, §4

Another series relates to HL-60/ADR cells. Kind of series: MTS cytotoxicity test with HL-60/ADR cells (MRP1). Format: cell-based, human. As to conditions: for IC50: HL-60/ADR cells, mean of 2 experiments; for Ratio: IC50 on HL-60/ADR cells/IC50 on HL-60 cells.
Source text: as §1, §2, §3, §4
(§6) HL-60/ADR cells overexpress the multidrug resistance protein MRP1 which mediates resistance to some chemotherapeutics (Gottesman, M. M., Fojo, T., and Bates, S. E. Multidrug resistance in cancer: role of ATP-dependent transporters. Nature Rev. Cancer, 2: 48-58, 2002). The IC50 values of representative examples of this invention, as well as reference compounds, on HL-60/ADR are compared to values on the sensitive parental HL-60 line.

For another series, the system named is KB cells. The series is described as follows: MTS cytotoxicity test with KB cells. The format is cell-based, human. As to conditions: mean of 2 experiments.
Source text: as §1, §2, §3, §4

Another series relates to S1-M1 cells. Kind of series: MTS cytotoxicity test with S1-M1 cells (MXR). Format: cell-based, human. Particulars: for IC50: S1-M1 cells, mean of 2 experiments; for Ratio: IC50 on S1-M1 cells/IC50 on S1 cells.
Source text: as §1, §2, §3, §4, §5

In a further series the test system is KB-8-5 cells. The series is described as follows: MTS cytotoxicity test with KB-8-5 cells (moderate P-glycoprotein). Format: cell-based, human. As to conditions: for IC50: KB 8.5 cells, mean of 2 experiments; for Ratio 8.5/KB: IC50 on KB 8.5 cells/IC50 on KB cells.
Source text: as §1, §2, §3, §4

A further series has as its system HL-60 cells. Kind of series: MTS cytotoxicity test with HL-60 cells. Format: cell-based, human. Particulars: mean of 2 experiments.
Source text: as §1, §2, §3, §4, §6

Another series concerns COLO 205 cells. The series is described as follows: MTS cytotoxicity test with COLO 205 cells. The format is cell-based, human. As to conditions: three days with compound. On the procedure:
as §2
On day 2, compounds for test are diluted and added to wells. Compounds are dissolved in DMSO at 10 mg/mL. For each compound, nine serial 2-fold dilutions are prepared in DMSO. Ten μL of each dilution in DMSO are transferred to 100 μL of medium, mixed well, and then 5 μL of this dilution are transferred in quadruplicate to wells containing cells. The final high concentration of each compound is typically 5 μM. Plates are returned to the incubator for three days. At the time of drug addition to the experimental plates, the MTS assay is run on the “time 0” plate. This produces the “time 0 MTS value” which is related to the number of viable cells per well at the time of drug addition.
After three days of culture with test compounds (day 5 overall), the MTS assay is done on all wells of the experimental plates. The absorbance values of the quadruplicate sample wells are averaged and divided by the average of the “time 0” values. The average of control wells without drug, divided by the average “time 0” value, gives the maximal relative increase in MTS color yield due to cell growth during the final three days of culture. The average of control wells with high drug concentration, divided by the “time 0” value, gives the minimal relative color yield for cells that were completely killed. The nine values for each compound are plotted against concentration, and the concentration that produces a relative color yield half way between the maximum and minimum is taken as the IC50 value.
COLO 205 is a human colon carcinoma cell line that is used for comparative testing of the examples of this invention and several reference compounds. This line is sensitive to paclitaxel and vincristine.

Series [1] relates to H157 Human Non-Small Cell Lung Carcinoma. As to conditions: for T/C on day 0 / T/C on day 3 / T/C on day 7 / T/C on day 10 / T/C on day 13: schedule day 0.
Procedure: The ability of compounds of this invention to inhibit tumor growth in animals is studied in the athymic mouse xenograft standard pharmacological test. Female nu/nu mice in an outbred albino background are obtained from Charles River Laboratories (Wilmington, Mass.). Animals are injected subcutaneously on the flank with the desired tumor cell suspension. Several days later, mice with tumors of approximately 100 mm^3 are selected from those injected (staged) and randomly distributed into groups of 5-10. The day of staging is called day 0. Compounds of the invention, formulated in saline, are administered to animals by intravenous injection or oral gavage on various schedules starting on day 0 or 1, as noted in the tables. The control group in each experiment is dosed with vehicle on the same schedule. Tumor size is measured every 3-7 days with calipers in two orthogonal dimensions, and tumor volume is calculated from the formula volume=[(length×width^2)/2].
Tumor/Control (T/C) is obtained by dividing the mean tumor volume of the treated group by the mean tumor volume of the control group on each measurement day. […] A p value≦0.05, determined by one-side Student's t-test, is required for statistical significance. A treatment dose is defined as toxic if more than 30% of the animals die from a compound-related toxicity.

Read-outs that look alike come from different tables or passages of the source. Marks after values point to notes of the source that are not given here.

A word on the IC50: it is the concentration that inhibits the measured activity by half.
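Throughout, for T/C on day 0: subcutaneous flank tumors in female athymic nu/nu mice, staged near 100 mm^3 on day 0, tumor volume from caliper measurements, vehicle-dosed controls on the same schedule.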
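Throughout, for T/C on day 10: subcutaneous flank tumors in female athymic nu/nu mice, staged near 100 mm^3 on day 0, tumor volume from caliper measurements, vehicle-dosed controls on the same schedule.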
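Throughout, for T/C on day 3: subcutaneous flank tumors in female athymic nu/nu mice, staged near 100 mm^3 on day 0, tumor volume from caliper measurements, vehicle-dosed controls on the same schedule.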
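Throughout, for T/C on day 7: subcutaneous flank tumors in female athymic nu/nu mice, staged near 100 mm^3 on day 0, tumor volume from caliper measurements, vehicle-dosed controls on the same schedule.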

Turning to `COc1cccc2c1C(=O)c1c(O)c3c(c(O)c1C2=O)C[C@@](O)(C(=O)CO)C[C@@H]3O[C@H]1C[C@H](N)[C@H](O)[C@H](C)O1` [Doxorubicin, reference compound], the IC50 is 61 nM with S1 cells (Homo sapiens); greater than 300 nM in the series with KB-V1 cells (Homo sapiens, KB-V1); greater than 3000 nM in the series with HL-60/ADR cells (Homo sapiens, HL60/ADR); 38 nM with KB cells (Homo sapiens); 2880 nM with S1-M1 cells (Homo sapiens); 255 nM with KB-8-5 cells (Homo sapiens). 40 nM corresponded to half-maximal inhibition in the series with HL-60 cells (Homo sapiens) (IC50). Besides, the “Ratio VI/KB” value with KB-V1 cells and in the series on KB-V1 cells (listed as doxorubicin) was greater than 79 in each case. The values for the Ratio with HL-60/ADR cells, with HL-60/ADR cells (listed as doxorubicin) and with S1-M1 cells were greater than 75, greater than 75 and 47, respectively. Moreover, the “Ratio 8.5/KB” value in the series with KB-8-5 cells turned out to be 6.8.
As for `CNc1nc(Cl)c(-c2c(F)cc(OCCCN(C)C)cc2F)c(NCC(F)(F)F)n1.O=C(O)C(F)(F)F` [Example 20a, 6-Chloro-5-{4-[3-(dimethylamino)propoxy]-2,6-difluorophenyl}-N^2-methyl-N^4-(2,2,2-trifluoroethyl)pyrimidine-2,4-diamine trifluoroacetic acid salt], the IC50 is 95 nM in the series with S1 cells (Homo sapiens); 140 nM with KB-V1 cells (Homo sapiens, KB-V1); 68 nM in the series with HL-60/ADR cells (Homo sapiens, HL60/ADR); 26 nM in the series with KB cells (Homo sapiens); 56 nM in the series on COLO 205 cells (Homo sapiens, 72 h); 82 nM in the series with S1-M1 cells (Homo sapiens). Also, the IC50 in the series on KB-8-5 cells (Homo sapiens) turned out to be 57 nM; with HL-60 cells (Homo sapiens) it was 72 nM. Further, the “Ratio VI/KB” value in the series on KB-V1 cells turned out to be 5.5. Moreover, the “recognition by P-glycoprotein” value in the series on KB-V1 cells is “show recognition by P-glycoprotein, but much less than that shown by paclitaxel and vincristine”. Moreover, the Ratio with HL-60/ADR cells and with S1-M1 cells was 0.9 throughout.
`CN(C)CCCOc1cc(F)c(-c2c(Cl)nc(-c3cnccn3)nc2NCC(F)(F)F)c(F)c1.Cl` [Example 25a, 6-Chloro-5-{4-[3-(dimethylamino)propoxy]-2,6-difluorophenyl}-2-pyrazin-2-yl-N-(2,2,2-trifluoroethyl)pyrimidin-4-amine hygrogen chloride]: the “T/C on day 0” value in series [1] (5 mg/kg IV, H157 (Table 10)) turned out to be 1.02; in [1] (10 mg/kg IV, H157) it was 1.01. Moreover, the “T/C on day 3” value was 0.69* in [1] (5 mg/kg IV, H157 (Table 10)) and 0.49** in series [1] (10 mg/kg IV, H157). In addition, the “T/C on day 7” value in series [1] (5 mg/kg IV, H157 (Table 10)) is on record as 0.44**; in series [1] (10 mg/kg IV, H157), 0.36**. Moreover, the “T/C on day 10” value is reported as 0.29** in [1] (5 mg/kg IV, H157 (Table 10)) and 0.22** in [1] (10 mg/kg IV, H157). The “T/C on day 13” value in [1] (5 mg/kg IV, H157 (Table 10)) was 0.23**; in series [1] (10 mg/kg IV, H157) it was 0.12**. In series [1] (H157 NSCLC, intravenously on day 0, highest dose (10 mg/kg)), the compound toxicity entry is “some compound toxicity is observed”. Also, the IC50 is 27 nM in the series with S1 cells; 99 nM in the series on KB-V1 cells; 21 nM in the series with HL-60/ADR cells; 20 nM in the series with KB cells; 18 nM in the series with COLO 205 cells; 36 nM with S1-M1 cells. The IC50 in the series with KB-8-5 cells was 24 nM; with HL-60 cells it was 23 nM. The “Ratio VI/KB” value in the series with KB-V1 cells is on record as 4.9. Moreover, the “recognition by P-glycoprotein” value with KB-V1 cells was “show recognition by P-glycoprotein, but much less than that shown by paclitaxel and vincristine”. In addition, the Ratio stood at 0.9 with HL-60/ADR cells and 1.3 in the series with S1-M1 cells.
For the molecule `CN(C)CCCOc1cc(F)c(-c2c(Cl)nc(-c3ccc4ccccc4n3)nc2NCC(F)(F)F)c(F)c1` [Example 30, 6-Chloro-5-{4-[3-(dimethylamino)propoxy]-2,6-difluorophenyl}-2-quinolin-2-yl-N-(2,2,2-trifluoroethyl)pyrimidin-4-amine], the IC50 in the series with S1 cells (Homo sapiens) came to 138 nM; in the series with KB-V1 cells (Homo sapiens, KB-V1) it was 82 nM; in the series with HL-60/ADR cells (Homo sapiens, HL60/ADR), 71 nM; with KB cells (Homo sapiens) it was 60 nM; in the series on COLO 205 cells (Homo sapiens, 72 h), 7.4 nM; in the series with S1-M1 cells (Homo sapiens), 201 nM. For the same molecule, the IC50 in the series on KB-8-5 cells (Homo sapiens) stood at 68 nM; in the series with HL-60 cells (Homo sapiens), 88 nM. Also, the Ratio with HL-60/ADR cells is 0.8; in the series with S1-M1 cells, 1.5.
`O=C1c2c(O)ccc(O)c2C(=O)c2c(NCCNCCO)ccc(NCCNCCO)c21` [Mitoxantrone, reference compound]: the IC50 was 25 nM in the series with S1 cells (Homo sapiens); 401 nM in the series with KB-V1 cells (Homo sapiens, KB-V1); 259 nM in the series with HL-60/ADR cells (Homo sapiens, HL60/ADR); 132 nM in the series with KB cells (Homo sapiens); greater than 3000 nM in the series with S1-M1 cells (Homo sapiens); 256 nM with KB-8-5 cells (Homo sapiens). The same molecule displayed an IC50 with HL-60 cells (Homo sapiens) of 17 nM. In addition, the “Ratio VI/KB” value with KB-V1 cells is on record as 3.0. The Ratio with HL-60/ADR cells is reported as 15; in the series on S1-M1 cells, greater than 120; with S1-M1 cells (listed as mitoxantrone) it was greater than 120. Moreover, the “Ratio 8.5/KB” value in the series with KB-8-5 cells is 1.9.
